Reference: patent publication EP0934745B1, “Use of androsterone derivatives for inhibiting DNA binding of ap-1 and airway smooth muscle proliferation” (CHARLOTTE-MECKLENBURG HOSPITAL doing business as Carolinas …, priority 1998, dated 1999)

Experiments:
[1] = target: T1, glucose-6-phosphate dehydrogenase (G6PDH) (Rattus norvegicus, UniProt P05370); experiment: G6PDH activity after pretreatment of intact airway smooth muscle monolayers; type: cell-based; details: for G6PDH activity of subsequent cell lysates: monolayers pretreated with concentrations that inhibited cell proliferation, result in words
T1 construct: endogenous in cells; host or cells: primary rat tracheal (airway) smooth muscle cells
Protocol: (§1) After 1 hour cells were lysed and G6PDH activity was assayed as described below. In other experiments, G6PDH activity was measured in cell lysates prepared from untreated confluent cultures and treated in vitro with DHEA or 16α-BrEA added to the reaction mixture in 5 µl DMSO. […] Ribonucleosides or deoxyribonucleosides were dissolved in 0.5 ml of 1 N HCl and added to DMEM. The pH of the medium was adjusted to 7.1 by titration with 1 N NaOH, and medium was then sterilized by passage through a […] filter. Growth was measured by MTT reduction after 24, 48 and 96 hours.
(§2) To determine if DHEA or its analogs induced programmed cell death, confluent cultures in 6 well plastic plates were treated with 50 or 250 µM DHEA, 10 or 50 µM 16α-BrEA, or vehicle (25 µl DMSO). After 2 hours cells were washed twice with DPBS and scraped on ice into 1.5 ml microfuge tubes and centrifuged 250 g for 5 minutes at 4°C. The cell pellet was gently resuspended in 30 µl DPBS and lysed by addition of 30 µl lysis buffer (80 mM EDTA, 1.6% [wt/vol] sodium lauryl sarcosinate and 5 mg/ml proteinase K in 200 mM Tris-HCl buffer, pH 8.0). Lysate was incubated at 50°C for 1.5 hours. RNAse A (0.2 mg/ml) was added and the lysate was incubated for another 30 minutes at 37°C. DNA bands were separated along with a DNA ladder standard on a 1% agarose gel at 60 V for 1 hour, intercalated with ethidium bromide, and visualized and photographed under ultraviolet light. Measurement of Glucose-6-Phosphate Dehydrogenase Activity. Cultures were washed three times with cold DPBS on ice, scraped into ice cold buffer (10 mM MgCl2 in 50 mM Tris, pH 8.0) and sonicated on ice. G6PDH activity was then assayed by the method of Jones and Andrews (Jones, J.T., and Andrews, S.G., "Glucose-6-phosphate dehydrogenase activity in somatic and germinal cells of the mouse testis," J. Reproduc. Fertility, 54, 357-362 (1978)) in a reaction mixture containing 50-200 µl cell lysate, 20 µl of 10 mM β-nicotinamide adenine dinucleotide phosphate (NADP) and 20 µl of 10 mM D-glucose-6-phosphate (G6P) in a total volume of 1 ml buffer (10 mM MgCl2 in 50 mM Tris, pH 8.0). The reaction was initiated by addition of G6P. The linear increase in absorbance at 340 nm was monitored at 25°C for 300 seconds. Activity was expressed as units/mg protein, where 1.0 unit will oxidase 1.0 µmole of G6P to 6-phospho-D-gluconate per min in the presence of NADP. Protein was measured using the BCA protein assay (Rockford, IL). Immunoblot Assay for p21^ras and c-fos Proteins. For measurement of p21^ras, cells were washed twice-with cold DPBS and swelled on ice for 15 minutes with 500 µl cold lysis buffer (10 mM HEPES, 1 mM MgCl2, 1 mM EDTA, 1 µM pepstatin, 2 µg/ml aprotinin, and 1 mM phenylmethylsulfonyl fluoride). See Schulz and Nyce (1991), supra. Cells were then scraped into 1.5 ml polypropylene tubes, homogenized and clarified by centrifugation at 3,000 g for 1 minute at 4°C. The postnuclear supernatant was centrifuged 100,000 g for 30 minutes at 4°C. Supernatants were collected and pelleted membranes were resuspended in detergent buffer (1% Triton X-100, 1% sodium deoxycholate, 0.1% SDS, 150 mM NaCl, 1 µM pepstatin, 2 µg/ml aprotinin and 1 mM phenylmethylsulfonyl fluoride in 25 mM Tris, pH 7.4). Aliquots of supernatant and membrane fractions were removed for protein determination using the BCA protein assay. Bromophenol blue and β-mercaptoethanol were added to the remaining sample to a final concentration of 0.002% (wt/vol) and 5% (vol/vol), respectively. Lysates were then boiled for 5 minutes at 100°C and stored at -80°C until immunoblotting was performed.
Activity is expressed as % inhibition of DMSO vehicle-treated controls by 16α-bromoepiandrosterone (BrEA) or dehydroepiandrosterone (DHEA). DMSO alone caused no reduction in G6PDH activity under assay conditions. Each bar represents the mean of at least 3 experiments. Methods are described in the text. […]

[2] = target: T1, glucose-6-phosphate dehydrogenase (G6PDH); experiment: G6PDH activity in airway smooth muscle cell lysates, inhibitors added to the lysate; type: biochemical; details: 100 µl, read-out: PERCENT INHIBITION OF GLUCOSE 6-PHOSPHATE DEHYDROGENASE ACTIVITY
Protocol: as §1
as §2, with “Bromophenol blue and β-mercaptoethanol were added to the remaining sample to a final concentration of 0.002% (wt/vol) and 5% (vol/vol), respectively. Lysates were then boiled for 5 minutes at 100°C and stored at -80°C until immunoblotting was performed.” left out
Activity is expressed as % inhibition of DMSO vehicle-treated controls by 16α-bromoepiandrosterone (BrEA) or dehydroepiandrosterone (DHEA). […]

T1 sequence (P05370 whole entry): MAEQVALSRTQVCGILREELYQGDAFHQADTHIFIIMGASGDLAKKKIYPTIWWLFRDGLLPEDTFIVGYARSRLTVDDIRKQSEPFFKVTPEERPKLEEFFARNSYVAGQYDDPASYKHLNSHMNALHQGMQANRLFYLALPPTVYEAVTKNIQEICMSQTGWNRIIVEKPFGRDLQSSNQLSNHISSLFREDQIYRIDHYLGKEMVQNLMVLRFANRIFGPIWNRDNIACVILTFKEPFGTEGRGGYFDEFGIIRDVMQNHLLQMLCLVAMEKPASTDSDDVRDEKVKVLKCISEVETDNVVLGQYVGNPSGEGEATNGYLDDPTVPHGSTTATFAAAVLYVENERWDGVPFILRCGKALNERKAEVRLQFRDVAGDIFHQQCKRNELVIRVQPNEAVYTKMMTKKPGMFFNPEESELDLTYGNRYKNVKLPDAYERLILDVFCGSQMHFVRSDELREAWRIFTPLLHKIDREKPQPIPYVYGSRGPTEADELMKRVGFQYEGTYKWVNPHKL

In the case of `C[C@]12CC[C@H](O)C[C@@H]1CC[C@@H]1[C@@H]2CC[C@]2(C)C(=O)[C@H](Br)C[C@@H]12` [16α-BrEA, 16α-bromoepiandrosterone], the “G6PDH activity of subsequent cell lysates” value [1] is reported as “not significantly reduced”, the inhibition at 25 µM [2] is reported as 49% and the inhibition at 50 µM [2] is reported as 71 ± 8%.

Compound `C[C@]12CC[C@H](O)CC1=CC[C@@H]1[C@@H]2CC[C@]2(C)C(=O)CC[C@@H]12` [DHEA, dehydroepiandrosterone] has an inhibition at 25 µM ([1]; 25 µM, Intact Airway Smooth Muscle monolayers pretreated 1 hour before harvest, read-out: PERCENT INHIBITION OF GLUCOSE 6-PHOSPHATE DEHYDROGENASE ACTIVITY) of 0%, an inhibition at 50 µM ([1]; 50 µM, Intact Airway Smooth Muscle monolayers pretreated 1 hour before harvest, read-out: PERCENT INHIBITION OF GLUCOSE 6-PHOSPHATE DEHYDROGENASE ACTIVITY) of 0% and an inhibition at 100 µM ([1]; 100 µM, Intact Airway Smooth Muscle monolayers pretreated 1 hour before harvest, read-out: PERCENT INHIBITION OF GLUCOSE 6-PHOSPHATE DEHYDROGENASE ACTIVITY) of 6 ± 7%. The inhibition at 250 µM ([1]; 250 µM, Intact Airway Smooth Muscle monolayers pretreated 1 hour before harvest, read-out: PERCENT INHIBITION OF GLUCOSE 6-PHOSPHATE DEHYDROGENASE ACTIVITY) was 24 ± 9%, the “G6PDH activity of subsequent cell lysates” value [1] was “not significantly reduced” and the inhibition at 25 µM [2] was 77 ± 3%. For the same compound, the inhibition at 50 µM [2] was 82 ± 3% and the inhibition at 100 µM ([2]; 100 µM) was 93 ± 3%.
